In the assay the target is T1, α-glucosidase (from Saccharomyces cerevisiae).
T1 construct: gene MAL12; commercial enzyme from Sigma (St. Louis, MO)
The assay can be described thus: absorbance at […] nm, pNP-G hydrolysis. In kind it is biochemical. Particulars: pNP-G substrate (1 mL of 1 mM), 0.1 M PBS pH 6.9, 37°C, 10 min preincubation; mixed noncompetitive and anticompetitive.

Converted amounts (≈) assume the structure as drawn.

For `Oc1cc(O)c2c(c1)O[C@H](c1ccc(O)c(O)c1)[C@@H](O)C2` [catechin], the IC50 amounted to 239.27 µg/mL (≈ 824 µM).

(Values after article PMC4784921, “Antioxidant Activity and α-Glucosidase Inhibitory Activities of the Polycondensate of Catechin with Glyoxylic Acid” (PLoS ONE, 2016).)
